{
  "source": "the NIST ThermoML archive (doi:10.1016/j.fluid.2005.11.026)",
  "conditions": "313.15 K; Liquid; Closed cell (Static) method",
  "note": "“And” between values parts separate entries of the source, which are not always exact repeats. Equal values may be shown once. ± gives the expanded uncertainty stated by the source.",
  "data": [
    {"smiles": "C1CCCCC1", "note": "[cyclohexane]", "values": [
      {"measurement": "vapor or sublimation pressure", "value": "24.62 ± 0.096", "unit": "kPa"}
    ]},
    {"smiles": "Cc1ccccc1", "note": "[toluene]", "values": [
      {"measurement": "vapor or sublimation pressure", "value": "7.881 ± 0.041 kPa and 7.888 ± 0.041 kPa and 7.889 ± 0.041 kPa"}
    ]}
  ]
}
